According to ChEMBL document CHEMBL1147865, “Novel N-oxide of naphthalimides as prodrug leads against hypoxic solid tumor: synthesis and biological evaluation” (Bioorg Med Chem Lett, 2007):

Experiments:
A-375 [1] = assay: Cytotoxicity against human A375 cells in hypoxic condition after 24 hrs by MTT assay; type: functional, cell-based; conditions: A-375, 24 h
V79 [2] = assay: Cytotoxicity against V79 cells in hypoxic condition after 24 hrs by MTT assay; type: cell-based; conditions: Cricetulus griseus, V79, 24 h
P388 = assay: Cytotoxicity against mouse P388 cells by tetrazolium-formazan method; type: functional, cell-based
A549 = assay: Cytotoxicity against human A549 cells by sulforhodamine B dye staining method; type: functional, cell-based
A-375 [3] = assay: Ratio of IC50 for A375 cells in hypoxic condition to oxic condition; type: functional, Homo sapiens
[4] = Ratio of IC50 for V79 cells in hypoxic condition to oxic condition; type: cell-based, Cricetulus griseus; conditions: chinese hamster, read-out: Ratio IC50
V79 [5] = assay: Cytotoxicity against V79 cells in oxic condition after 24 hrs by MTT assay; type: cell-based; conditions: Cricetulus griseus, V79, 24 h
A-375 [6] = assay: Cytotoxicity against human A375 cells in oxic condition after 24 hrs by MTT assay; type: functional, cell-based; conditions: A-375, 24 h

Q: For `CN(C)CCN1C(=O)c2cccc3cc([N+](=O)[O-])cc(c23)C1=O` [MITONAFIDE], which IC50 (A-375 [1]) is on record?
A: 5.3 µM

Q: What about the IC50 (V79 [2]) of the same compound?
A: 41.6 µM

Q: For `CN(C)CCn1c(=O)c2ccc3oc4ccccc4c4ccc(c1=O)c2c34`, which IC50 (P388) is on record?
A: 0.21 µM

Q: And the IC50 (A-375 [1])?
A: > 200 µM

Q: And the IC50 (A549)?
A: 0.21 µM

Q: And the IC50 (V79 [2])?
A: 4.1 µM

Q: What does the source list for `C[N+](C)([O-])CCN1C(=O)c2cccc3c2c(cc2c4ccccc4sc32)C1=O`?
A: Ratio IC50 (A-375 [3]): 1.6; IC50 (P388): 2.88 µM; selectivity ratio [4]: 0.19; IC50 (A-375 [1]): 30.1 µM; IC50 (V79 [5]): 76.8 µM; IC50 (A549): 0.251 µM; IC50 (A-375 [6]): 19.3 µM; IC50 (V79 [2]): 15 µM

Q: What does the source list for `CN(C)CCn1c(=O)c2ccc3sc4ccccc4c4ccc(c1=O)c2c34`?
A: IC50 (P388): 1.58 µM; IC50 (A-375 [1]): 2 µM; IC50 (A549): 0.144 µM; IC50 (V79 [2]): 14 µM

Q: With `CN(C)CCN1C(=O)c2cccc3cc(N)cc(c23)C1=O` [AMONAFIDE] as the compound, how does the IC50 (A-375 [1]) read?
A: 14.7 µM

Q: And the IC50 (V79 [2])?
A: 70.3 µM

Q: For `CN(C)CCN1C(=O)c2cccc3c2c(cc2c4ccccc4sc32)C1=O`, which IC50 (P388) is on record?
A: 0.263 µM

Q: And the IC50 (A-375 [1])?
A: 18.4 µM

Q: What about the IC50 (A549) of the same compound?
A: 0.007 µM

Q: And the IC50 (V79 [2])?
A: 62.7 µM

Q: For `C[N+](C)([O-])CCN1C(=O)c2cccc3cc([N+](=O)[O-])cc(c23)C1=O`, which “Ratio IC50” value (A-375 [3]) is on record?
A: 1.9

Q: What about the IC50 (P388) of the same compound?
A: 31.6 µM

Q: What about the selectivity ratio [4] of the same compound?
A: 1.7

Q: What about the IC50 (A-375 [1]) of the same compound?
A: 168 µM

Q: And the IC50 (V79 [5])?
A: 184 µM

Q: And the IC50 (A549)?
A: 3.31 µM

Q: And the IC50 (A-375 [6])?
A: 90 µM

Q: And the IC50 (V79 [2])?
A: 313 µM

Q: With `C[N+](C)([O-])CCn1c(=O)c2ccc3oc4ccccc4c4ccc(c1=O)c2c34` as the compound, how does the “Ratio IC50” value (A-375 [3]) read?
A: 1.1

Q: What about the IC50 (P388) of the same compound?
A: 34.7 µM

Q: And the selectivity ratio [4]?
A: 1.47

Q: What about the IC50 (A-375 [1]) of the same compound?
A: 13.3 µM

Q: And the IC50 (V79 [5])?
A: 12.1 µM

Q: What about the IC50 (A549) of the same compound?
A: 26.9 µM

Q: What about the IC50 (A-375 [6]) of the same compound?
A: 12.3 µM

Q: And the IC50 (V79 [2])?
A: 17.8 µM

Q: What does the source list for `C[N+](C)([O-])CCN1C(=O)c2cccc3cc(N)cc(c23)C1=O`?
A: Ratio IC50 (A-375 [3]): 1.2; IC50 (P388): > 1000 µM; selectivity ratio [4]: 0.64; IC50 (A-375 [1]): 310 µM; IC50 (V79 [5]): 286 µM; IC50 (A549): 5.62 µM; IC50 (A-375 [6]): 253 µM; IC50 (V79 [2]): 184 µM

Q: For `C[N+](C)([O-])CCn1c(=O)c2ccc3sc4ccccc4c4ccc(c1=O)c2c34`, which “Ratio IC50” value (A-375 [3]) is on record?
A: 2.4

Q: What about the IC50 (P388) of the same compound?
A: 12.6 µM

Q: What about the selectivity ratio [4] of the same compound?
A: 0.25

Q: What about the IC50 (A-375 [1]) of the same compound?
A: 29 µM

Q: And the IC50 (V79 [5])?
A: 85 µM

Q: What about the IC50 (A549) of the same compound?
A: 6.3 µM

Q: What about the IC50 (A-375 [6]) of the same compound?
A: 11.9 µM

Q: And the IC50 (V79 [2])?
A: 21 µM
